The first data set can be described thus: in vitro. The settings on record: human, hela cells, % viability.
With `Cc1noc(C)c1S(=O)(=O)Nc1ccc2cc(Br)cnc2n1` [CBK073893], the viability (commonly a read-out of living cells in per cent, often relative to untreated cells) at 28.5 h, 10 µM was found to be 93.1%.

Consider `COC(=O)[C@H]1CN(C(=O)c2cn(C)nc2C)C[C@@H]1c1ccc(F)cc1` [CBK283720], for which the viability at 28.5 h, 10 µM was 96.6%.

With `C=CCNc1nccnc1-c1ccccc1OC` [CBK036831], the viability at 28.5 h, 10 µM is 106%.

As to `COCc1nnc(SCC(=O)N2CCc3ccccc32)n1-c1ccccc1` [CBK269739], the viability at 28.5 h, 10 µM amounted to 83.1%.

For `COc1ccc2c(c1)sc1ncc(C#N)n12` [CBK016716], the viability at 28.5 h, 10 µM came out at 87.9%.

Take `O=C(c1ccccc1)N1C[C@@H](c2ccsc2)[C@@H]2CN(Cc3ccccc3)CC[C@@H]21` [CBK285602]: the viability at 28.5 h, 10 µM came to 104%.

In the case of `Cc1nn(-c2ccc(F)cc2)c2[nH]c(=O)c(CNC(C)C)cc12` [CBK283119], the viability at 28.5 h, 10 µM was 95.7%.

As to `COCc1cc2n[nH]c(=O)n2c(-c2ccccc2)n1` [CBK288507], the viability at 28.5 h, 10 µM is 98.3%.

`Cc1cc(NC(=O)CN2CC=C(c3ccc(C)o3)CC2)no1` [CBK283608]: the viability at 28.5 h, 10 µM worked out at 106%.

As for `CSCCC(C(=O)O)n1c(S)nnc1-c1ccc2ccccc2n1` (stereo not drawn) [CBK269230], the viability at 28.5 h, 10 µM came to 99.5%.

For `Cc1ccc(C2CCCN2C(=O)c2cccn(CC(=O)Nc3ccc(F)cc3)c2=O)cc1C` (stereo not drawn) [CBK286528], the viability at 28.5 h, 10 µM came to 90.1%.

Turning to `Cn1c(CNC(=O)c2ncoc2-c2cccs2)nc2ccccc21` [CBK283985], the viability at 28.5 h, 10 µM was 78.6%.

Consider `Cn1nc(-c2ccc(S(=O)(=O)Nc3ncc([N+](=O)[O-])s3)s2)cc1C(F)(F)F` [CBK067542], for which the viability at 28.5 h, 10 µM came out at 109%.

Consider `CC(C)Nc1cc(SCCc2ccccn2)ncn1` [CBK105617], for which the viability at 28.5 h, 10 µM turned out to be 97.8%.

As to `O=C(c1ccco1)N1CCC[C@H]1[C@H](O)c1nc2ccccc2s1` [CBK284290], the viability at 28.5 h, 10 µM is 99%.

Take `Nc1nc(N2CCCCC2)nc2ccccc12` [CBK012270]: the viability at 28.5 h, 10 µM is 114%.

`Cc1noc(-c2cn(C)nc2C2CCCCN2CC2CC2)c1C` (stereo not drawn) [CBK283408]: the viability at 28.5 h, 10 µM came to 88.1%.

Consider `COc1cc(C(=O)N2CCC3(CC2)CC(=O)c2cc(CN4CCOCC4)ccc2O3)cc(OC)c1C` [CBK169182], for which the viability at 28.5 h, 10 µM worked out at 109%.

With `COc1ccc(Cl)cc1N1CCN(Cc2cc(OC)c(OC)c(OC)c2)CC1` [CBK126406], the viability at 28.5 h, 10 µM is 43.3%.

Regarding `O=C(c1ncc(F)cc1F)N1CCCCC1CN1CCOCC1` (stereo not drawn) [CBK305482], the viability at 28.5 h, 10 µM was 102%.

Turning to `Clc1ccc(OCCOc2ccccc2)nn1` [CBK176034], the viability at 28.5 h, 10 µM is 86.7%.

Turning to `NC(=O)c1c(NC(=O)COc2ccc(Cl)cc2)sc2c1CCC2` [CBK262163], the viability at 28.5 h, 10 µM was found to be 91%.

Consider `O=C(NCC1(N2CCOCC2)CCCCC1)c1ccccc1C(=O)c1ccc(F)cc1` [CBK297938], for which the viability at 28.5 h, 10 µM was found to be 81%.

Take `O=C1NCCN(C(=O)COc2ccc(F)cc2F)C1Cc1ccccc1-c1cccnc1` (stereo not drawn) [CBK285832]: the viability at 28.5 h, 10 µM was found to be 95.6%.

Turning to `CC1(C)CC(N(Cc2ccc(F)cc2)Cc2c[nH]cn2)CC(C)(C)N1` [CBK282540], the viability at 28.5 h, 10 µM was 102%.

In the case of `CNC(=O)Nc1cccc(S(N)(=O)=O)c1` [CBK023839], the viability at 28.5 h, 10 µM was 89.1%.

For the compound `CN(C)CCN1CCN(c2nc(Br)cn3ccnc23)CC1` [CBK037501], the viability at 28.5 h, 10 µM turned out to be 91.3%.

As to `CCCc1ccc(C(=O)N2CCC(C(=O)c3cccnc3)CC2)o1` [CBK285482], the viability at 28.5 h, 10 µM is 101%.

As to `O=C(c1cc[nH]n1)N1CCOCC1` [CBK027868], the viability at 28.5 h, 10 µM came out at 89.2%.

For the compound `COc1cc(CNc2ccc(N3CCOCC3)c(Cl)c2)ccc1OCc1ccccc1F` [CBK074392], the viability at 28.5 h, 10 µM amounted to 93.6%.

Consider `CC(C)[C@H]1NC(=O)[C@@H]2[C@@H](NC(=O)NC3CCCCC3)CCN2C1=O` [CBK289264], for which the viability at 28.5 h, 10 µM was 113%.

For the compound `O=C(Nc1cccnc1)c1cccnc1C(=O)O` [CBK269663], the viability at 28.5 h, 10 µM amounted to 90.1%.

In the case of `Fc1cc(F)cc(-c2nnc(Cc3nc(-c4ccncc4)no3)o2)c1` [CBK288602], the viability at 28.5 h, 10 µM worked out at 98.6%.

With `CC(C)/C=N/N=C1\NC(=O)CS1` [CBK023706], the viability at 28.5 h, 10 µM turned out to be 90.7%.

Take `CCc1nc2c(OCc3ccccc3)cccn2c1N(C)C(=O)Nc1ccccc1OC` [CBK147890]: the viability at 28.5 h, 10 µM is 98.7%.

As to `CC(C)(CO)CNc1cncc(-c2ccccc2CO)n1` [CBK066088], the viability at 28.5 h, 10 µM worked out at 96.3%.

Consider `CN(C)CCN(Cc1ccccc1)Cc1c(F)cccc1Cl` [CBK261867], for which the viability at 28.5 h, 10 µM was found to be 112%.

Turning to `C=CCOc1ccccc1CNc1nc[nH]n1` [CBK267234], the viability at 28.5 h, 10 µM came out at 93.7%.

With `FC(F)(F)c1cccc(-c2nccnc2NCc2ccc3c(c2)OCO3)c1` [CBK037350], the viability at 28.5 h, 10 µM stood at 94.2%.

`O=C(Cn1c(NCCCO)nc2ccccc21)c1ccc(Cl)c(Cl)c1` [CBK262905B]: the viability at 28.5 h, 10 µM amounted to 94.1%.

`Cc1cc(OCC(=O)NCCCN2CCOCC2)cc(C)c1Br` [CBK265082]: the viability at 28.5 h, 10 µM stood at 99.9%.

Regarding `O=C1COc2ccccc2C(=O)N[C@@H]2CCOC[C@@H]2C/C=C/C[C@H]2[C@H](CCCN2CCO)N1` [CBK292149], the viability at 28.5 h, 10 µM turned out to be 106%.

With `O=C(CSc1nc(=O)cc(O)[nH]1)N1CCc2ccccc21` [CBK269350], the viability at 28.5 h, 10 µM amounted to 88.7%.

`CC(=O)NC(=S)Nc1ccc(Oc2ccccc2)cc1` [CBK288454]: the viability at 28.5 h, 10 µM is 86.6%.

Take `COc1ccc(CC(=O)N2CCCCC2c2cc(-c3ccc(F)cc3)cc(C)n2)cc1OC` (stereo not drawn) [CBK285858]: the viability at 28.5 h, 10 µM was found to be 98.8%.

In the case of `CCc1nc2ccc(C(=O)N(C)CCN(C)C)cn2c1N(CC)CCOC` [CBK146018], the viability at 28.5 h, 10 µM was determined as 94.2%.

Regarding `COc1cccc2c1cc(C(=O)NCCCC1CCOC1)n2C` (stereo not drawn) [CBK283284], the viability at 28.5 h, 10 µM was 93.4%.

With `CCOc1ccc(C(N)CC(=O)O)cc1` (stereo not drawn) [CBK262933C], the viability at 28.5 h, 10 µM was determined as 82.4%.

Consider `CCn1cc(S(=O)(=O)N2CCN(c3cccc(C(F)(F)F)c3)CC2)cn1` [CBK270328], for which the viability at 28.5 h, 10 µM worked out at 93.6%.

On to `O=C(CCC(=O)Nc1ccccc1)N/N=C/c1ccco1` [CBK261968], for which the viability at 28.5 h, 10 µM was determined as 108%.

Turning to `C(=C\CSC1=NCCN1)/CSC1=NCCN1` [CBK264266], the viability at 28.5 h, 10 µM amounted to 107%.

On to `CC(C)(C)OC(=O)N1CCCC(C(=O)NC(C(N)=O)c2ccccc2)C1` (stereo not drawn) [CBK305766], for which the viability at 28.5 h, 10 µM is 99.8%.

Take `Cc1ccc2[nH]c3nc(N/N=C/c4ccc(-c5cccc([N+](=O)[O-])c5)o4)nnc3c2c1` [CBK262365]: the viability at 28.5 h, 10 µM came out at 106%.

For the compound `O=C(O)C(Cc1ccccc1)NS(=O)(=O)c1ccc(I)cc1` (stereo not drawn) [CBK268807], the viability at 28.5 h, 10 µM stood at 110%.

Consider `Cc1nc2cccnc2n1C1CCN(C(=O)NC2CCCCC2)CC1` [CBK283637], for which the viability at 28.5 h, 10 µM was 88.5%.

As to `CNCC(=O)N1c2ccccc2CCc2ccc(NC(=O)OC)cc21` [CBK261285C], the viability at 28.5 h, 10 µM worked out at 96.5%.

As for `CSc1nc(N)nc(SC(C(=O)O)c2ccccc2)c1C#N` (stereo not drawn) [CBK267461], the viability at 28.5 h, 10 µM was 93.4%.

Consider `COC(=O)c1ccsc1NS(=O)(=O)c1ccc(NC(C)=O)cc1` [CBK039063], for which the viability at 28.5 h, 10 µM worked out at 87.7%.

Turning to `CS(=O)(=O)c1ccc(Nc2ncnc(N3CCC(Sc4ccccc4)CC3)c2[N+](=O)[O-])cc1` [CBK113567], the viability at 28.5 h, 10 µM is 92.8%.

Consider `CC(C)CC(=O)N1C[C@H]2NC(=O)c3ccccc3C(=O)[C@@]2(C)C1` [CBK281659], for which the viability at 28.5 h, 10 µM came out at 96.1%.

On to `O=C(NCCc1cccs1)C(c1ccccc1)c1ccccc1` [CBK270275], for which the viability at 28.5 h, 10 µM was determined as 90.1%.

Take `CCn1cc(C(=O)N2CCCCC2c2nc3ccccc3[nH]2)c(C)n1` (stereo not drawn) [CBK283778]: the viability at 28.5 h, 10 µM came out at 91.5%.

`O=C(NC(=S)Nc1ccccc1C(=O)O)c1ccc(Cl)cc1` [CBK265044]: the viability at 28.5 h, 10 µM worked out at 96.2%.

`COCCNC(=O)c1ccc(-c2cc(C(C)C)ccc2OC)nc1NCC1CC1` [CBK106256]: the viability at 28.5 h, 10 µM is 94.1%.

In the case of `O=C1S/C(=C\c2ccc(F)c(Br)c2)C(=O)N1c1cccc(Cl)c1` [CBK095450], the viability at 28.5 h, 10 µM amounted to 87.7%.

Regarding `O=C1NC2=C(C(=O)N(CCN3CCCC3)C2)C(c2ccccc2)N1` (stereo not drawn) [CBK283493], the viability at 28.5 h, 10 µM is 103%.

For `O=C(O)CCn1c(=O)cc(C(F)F)c2cn(Cc3ccccc3)nc21` [CBK286881], the viability at 28.5 h, 10 µM turned out to be 91.3%.

For `Cc1ccc(C(=O)COC(=O)C(Cc2ccccc2)N2C(=O)c3cc(Cl)c(Cl)cc3C2=O)cc1` (stereo not drawn) [CBK264176], the viability at 28.5 h, 10 µM was 109%.

In the case of `O=C(Nc1cccnc1N1CCNCC1)c1cc(F)cc(F)c1` [CBK029420T], the viability at 28.5 h, 10 µM was 92.3%.

Take `Cc1cc(CNC(=O)N2CCCCC2CO)no1` (stereo not drawn) [CBK156160]: the viability at 28.5 h, 10 µM is 108%.

As to `Cc1cccc(NC(=O)NCc2ccccn2)c1` [CBK269422], the viability at 28.5 h, 10 µM came to 92.3%.

Regarding `CC(C)(C)OC(=O)N1CCC(Sc2ccc(-c3ccco3)cc2)CC1` [CBK122552], the viability at 28.5 h, 10 µM was 85.6%.

With `CC[C@H]1CCCCN1C(=O)c1sc2nc(C(C)=O)ccc2c1Cl` [CBK091046], the viability at 28.5 h, 10 µM worked out at 101%.

Consider `O=S(=O)(Nc1nnn[nH]1)c1cccc2nonc12` [CBK062380], for which the viability at 28.5 h, 10 µM is 104%.

For the compound `Cc1cccc(-c2noc(CCC(=O)NCC3CCCO3)n2)c1` (stereo not drawn) [CBK268241], the viability at 28.5 h, 10 µM is 118%.

As for `COc1cccc(C(=O)NCCC(=O)N2CCCC(c3ncc[nH]3)C2)c1` (stereo not drawn) [CBK306864], the viability at 28.5 h, 10 µM turned out to be 82.5%.

Consider `NS(=O)(=O)c1ccc(NS(=O)(=O)c2ccc(NC(=O)C3CC3)cc2)cc1` [CBK264958], for which the viability at 28.5 h, 10 µM was 103%.

For `C=CCn1ncc(CN(CCN(C)C)Cc2ccc(C)o2)c1C` [CBK282846], the viability at 28.5 h, 10 µM amounted to 81.3%.

Take `O=C(Nc1cccc2ccccc12)N1CCN(Cc2ccc3c(c2)OCO3)CC1` [CBK074747]: the viability at 28.5 h, 10 µM stood at 89%.

The data set is the same for the next values; noted with them: human, hela cells, % viability, bulk resorufin, single well.
For the compound `O=C1C(=CNCCc2c[nH]c3ccccc23)C(=O)N(c2ccccc2)C(=S)N1c1ccccc1` [CBK265557], the viability at 28.5 h, 10 µM came out at 98.5%.

On to `Cc1cc(/C=C2\C(=O)NC(=O)N(Cc3ccccc3Cl)C2=O)c(C)n1-c1ccc(C(=O)O)cc1` [CBK265602], for which the viability at 28.5 h, 10 µM is 84.9%.

Values taken from publication PMC12040169 (PLOS Biology, 2025).
